Reference: US9896476B1, “Glycyrrhetic acid derivatives” (KING SAUD UNIVERSITY, priority 2017, dated 2018)

Experiments:
pyloric ligation ulcer = assay: Pyloric ligation ulcer model (antiulcer activity); format: in vivo, rat; conditions: rats, oral 30 min prior to pyloric ligation, 4 h, compounds 100 mg/kg, omeprazole 40 mg/kg
Method: Pyloric ligation ulcer models were used to test each of compounds (2)-(4) for antiulcer activity. Male rats (140 and 175 g) were selected for pyloric ligation ulcer model experiments and divided into eleven groups consisting of six animals each. The rats were fasted overnight. One group received normal saline 2 ml/kg (negative control), the second group received omeprazole 40 mg/kg (positive control) and the other groups received each of the compounds (2)-(4) (100 mg/kg) by oral route 30 min prior to pyloric ligation. Animals were sacrificed 4 h later and their stomachs were opened to collect the gastric contents. The gastric contents were centrifuged at 1000 rpm for 10 min. One ml of the supernatant liquid was pipetted out and diluted to a total volume of 10 ml with distilled water. The solution was titrated against 0.01 N sodium hydroxide solution using Topfer's reagent to indicate the end point when the solution turned […]. The volume of NaOH consumed was taken as corresponding to the free acidity. Titration was further continued until the solution regained pink color. The volume of sodium hydroxide solution required to achieve the pink color was noted and total acidity calculated. After opening the stomach, the ulcer index was calculated.
The results are expressed as mean±SEM. The difference between groups was determined using the one way analysis of variance (ANOVA) followed by Dunnett's test. P<0.05 was considered significant.

H+/K+-ATPase = target: T1, H+/K+-ATPase (Sus scrofa, UniProt P19156); assay: H+/K+-ATPase (proton pump) inhibition in membrane vesicles of stomach mucosa; format: biochemical; conditions: pig gastric membrane vesicles, 37° C.; pre-incubation pH (6.0 or 7.4) not given
T1 construct: Membrane vesicles containing H^+/K^+-ATPase were prepared from pig stomachs; from tissue; host or cells: pig gastric mucosa membrane vesicles
Method: Membrane vesicles containing H^+/K^+-ATPase were prepared from pig stomachs obtained from a local slaughter house. Pigs were fasted overnight before slaughter. The gastric mucosa of four stomachs was rinsed with cold saturated NaCl solution for 3-5 min. The superficial cells, cell debris plus the mucus were wiped off with the edge of a plastic ruler and paper towels. The mucosa was scraped off. About 100 g of scrapings were divided into portions of 10 g and homogenized in 0.25 M sucrose with seven strokes in a Potter-Elvehjem Teflon-glass homogenizer. […] The pellet was discarded. The supernatant was centrifuged at 75,000 g for 1 h. The resulting microsomal pellet was homogenized in 30 ml 0.25 M sucrose. Aliquots of 15 ml were transferred to 100 ml centrifuge tubes and layered on top of step gradients, from the bottom comprising 25 ml 37% sucrose (w/v) and 45 ml 7.5% Ficoll (w/v) in 0.25 M sucrose. The tubes were centrifuged at 75,000 g for 1 h in a 6×100 ml ME angle rotor at 4° C. The gradient was then fractionated by pumping Fluoroinert 70 through narrow tubing in a fractionating cap down to the bottom of the tube. Fractions are collected from top through a center hole in the fractionating cap. The yield of vesicles in a typical preparation is about 50-75 mg protein. In order to maintain a stable vesicular structure for a long period of time, the vesicles were frozen at −70° C. under nitrogen, and could then be kept for several months without decrease of H^+/K^+-ATPase activity. The ATPase activity was measured at 37° C. as the release of inorganic phosphate (Pi) from ATP. […] Then, the medium of pH 6.0 is adjusted with HEPES/Tris buffer to pH 7.4. The enzyme reaction is started by addition of nigericin and Tris/ATP. The total reaction volume is 1 ml, containing 20 μg vesicular protein, 4 mM MgCl2, 10 mM KCl, 20 μM nigericin, 2 mM Tris-ATP, 10 mM HEPES and additionally 2 mM Pipes for the pre-incubation medium at pH 6.0. After […] at 37° C., the reaction is stopped by the addition of […] of 50% trichloroacetic acid. The denatured protein was spun down and the Pi content is determined according to Le Bel et al. (1978) and based on the reduction of a phosphomolybdate complex by p-methyl-aminophenol sulfate in a copper acetate buffer or according to Carter and Karl (1982) based on the reaction of phosphomolybdate with the basic dye malachite green. […] IC50 values of the test compound at different pH values were compared with IC50 values of the standard. Statistical differences (P<0.05) were calculated by Student's t-test.

[1] = tested on: cotton pellet-induced granuloma; assay: Cotton pellet-induced granuloma bioassay; format: in vivo, rat; conditions: rat, compound-impregnated cotton pellets implanted s.c., 7 days, dose response 4, 7, 10 and 15 μmol
Method: An animal model cotton pellet-induced granuloma bioassay was used to determine ED50 for the compounds (2)-(4). Adult male Sprague Dawley rats (120-140 g), were used in the cotton pellet-induced granuloma bioassays. The rats were acclimated one week prior to use and allowed unlimited access to standard rat chow and water. Prior to the start of the experiment, the animals were randomly divided into groups of six rats each. Cotton pellet (35±1 mg) cut from dental rolls were impregnated with 0.2 ml (containing 0.01 mmol) of a solution of each of compounds (2)-(4) in chloroform, and the solvent was allowed to evaporate. Each cotton pellet was subsequently injected with 0.2 ml of an aqueous solution of antibiotics (1 mg penicillin G and 1.3 mg dihydrostreptomycin/ml). Two pellets were implanted subcutaneously, one in each axilla of the rat, under mild general anesthesia. One group of animals received the standard reference pharmaceutical indomethacin and the antibiotics at the same level. Pellets containing only the antibiotics were similarly implanted in control rats. Seven days later, the animals were sacrificed and the two cotton pellets, with adhering granulomas, were removed, dried for 48 h at 60° C. and weighed. The increment in dry weight (difference between the initial and final weight) was taken as a measure of the dry weight of granuloma±SEM. The dry weight of granuloma and the percentage reduction in dry weight of granuloma relative to the respective control value were calculated for all rats. The ED50 values were determined through dose response curves using doses of 4, 7, 10 and 15 μmol for each compound.

[2] = tested on: carrageenan-induced rat paw edema; assay: Carrageenan-induced rat paw edema; format: in vivo; conditions: 10 μmol/kg s.c. 1 h prior to carrageenan; increase between 0 h and 4 h
Method: Male albino rats weighing 120-150 g were used in these experiments. The rats were kept in an animal house under standard conditions of light and temperature with free access to food and water. The animals were randomly divided into groups of six rats each for each experimental and control group. The paw edema was induced by subplantar injection of […] of 2% carrageenan solution in saline (0.9%). […] A control group was injected with DMSO only. The volume of paw edema (ml) was determined by means of a plethysmometer immediately after carrageenan injection and 4 h later. The increase in paw volume between 0 h and 4 h after carrageenan injection was measured. The percentage protection against inflammation was calculated according to the following formula: % Protection=100%×(Vc−Vd)/Vc where Vc is the 4 h increase in paw volume in the control animals (control) and Vd is the 4 h increase in paw volume in the test animals. Data are expressed as the mean±SEM. Significant difference between the control and test groups was determined using Student's t-test and P values. The difference in results was considered significant when P<0.001.

T1 sequence (P19156 2-1034 limits assumed): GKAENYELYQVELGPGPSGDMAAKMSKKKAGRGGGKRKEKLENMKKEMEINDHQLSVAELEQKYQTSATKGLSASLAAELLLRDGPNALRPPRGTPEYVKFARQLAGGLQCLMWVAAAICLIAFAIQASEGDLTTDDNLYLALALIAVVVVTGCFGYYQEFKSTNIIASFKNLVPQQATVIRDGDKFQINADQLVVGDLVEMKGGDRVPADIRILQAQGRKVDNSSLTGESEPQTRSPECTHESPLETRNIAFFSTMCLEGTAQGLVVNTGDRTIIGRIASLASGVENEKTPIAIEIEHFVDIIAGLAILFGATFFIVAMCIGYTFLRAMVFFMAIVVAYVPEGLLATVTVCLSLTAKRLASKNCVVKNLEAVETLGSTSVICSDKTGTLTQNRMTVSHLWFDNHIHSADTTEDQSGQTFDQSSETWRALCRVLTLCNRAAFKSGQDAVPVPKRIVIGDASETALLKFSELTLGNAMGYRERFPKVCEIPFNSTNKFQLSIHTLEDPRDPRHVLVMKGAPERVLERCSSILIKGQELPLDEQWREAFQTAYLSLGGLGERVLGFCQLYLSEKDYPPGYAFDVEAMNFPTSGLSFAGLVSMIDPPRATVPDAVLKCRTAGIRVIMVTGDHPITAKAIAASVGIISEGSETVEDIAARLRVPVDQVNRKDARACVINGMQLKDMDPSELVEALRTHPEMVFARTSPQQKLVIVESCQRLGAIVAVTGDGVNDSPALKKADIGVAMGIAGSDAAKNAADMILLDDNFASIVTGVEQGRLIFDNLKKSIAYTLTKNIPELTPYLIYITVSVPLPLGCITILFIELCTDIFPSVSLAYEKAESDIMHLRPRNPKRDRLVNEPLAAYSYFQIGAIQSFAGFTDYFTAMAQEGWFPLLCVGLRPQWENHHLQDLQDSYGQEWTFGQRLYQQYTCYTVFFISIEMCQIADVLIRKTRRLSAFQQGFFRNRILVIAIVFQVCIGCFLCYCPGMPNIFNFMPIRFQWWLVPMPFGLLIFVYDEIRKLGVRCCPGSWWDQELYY
T1 sequence (P18434 whole entry partner): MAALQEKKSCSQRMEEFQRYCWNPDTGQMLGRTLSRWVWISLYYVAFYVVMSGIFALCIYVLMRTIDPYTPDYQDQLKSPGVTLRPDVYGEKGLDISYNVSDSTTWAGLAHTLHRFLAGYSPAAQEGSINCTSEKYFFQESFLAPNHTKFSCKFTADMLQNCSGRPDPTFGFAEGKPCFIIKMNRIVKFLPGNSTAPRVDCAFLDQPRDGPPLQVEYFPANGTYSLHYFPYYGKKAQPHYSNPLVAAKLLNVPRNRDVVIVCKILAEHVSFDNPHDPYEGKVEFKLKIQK

Structure (SMILES) | Free acid (pyloric ligation ulcer; gastric contents) [mEq/L] | Total acid (pyloric ligation ulcer; gastric contents) [mEq/L] | Ulcer Index (pyloric ligation ulcer) | IC50 (H+/K+-ATPase) [µM] | The anti-inflammatory activity ED50 [1] [µmol] | The anti-inflammatory activity ED50 ([1]; listed as indomethacin) [µmol] | Increase in paw edema (ml) ± SEM [2] [mL]
COc1ccc2[nH]c([S+]([O-])Cc3ncc(C)c(OC)c3C)nc2c1 (stereo not shown) [Omeprazole, reference compound] | 0.43 | 0.33 | 3.31 | 66.1 ± 1.11 |  |  | 
COc1ccc2c(c1)c(CC(=O)O)c(C)n2C(=O)c1ccc(Cl)cc1 [Indomethacin, reference compound] |  |  |  |  | 9.568 ± 0.098 | 9.568 | 0.25 ± 0.0005
